Source: PubChem BioAssay (NCI)
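Test compounds were applied to cells in 96-well plates for 48 hours at 5 doses. TGI marks complete inhibition of growth.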

How the values were obtained:
Test in all cases: NCI-60 cell line screen, 48 h
CAKI-1 renal = test system: CAKI-1 renal
CCRF-CEM leukemia = test system: CCRF-CEM leukemia
DU-145 prostate = test system: DU-145 prostate
HCT-15 colon = test system: HCT-15 colon
HL-60(TB) leukemia = test system: HL-60(TB) leukemia
IGROV1 ovarian = test system: IGROV1 ovarian
K-562 leukemia = test system: K-562 leukemia
KM12 colon = test system: KM12 colon
MCF7 breast = test system: MCF7 breast
MDA-MB-231 breast = test system: MDA-MB-231 breast
MDA-MB-435 = test system: MDA-MB-435
NCI-H460 lung = test system: NCI-H460 lung
OVCAR-5 ovarian = test system: OVCAR-5 ovarian
OVCAR-8 ovarian = test system: OVCAR-8 ovarian
RXF 393 renal = test system: RXF 393 renal
SF-295 CNS = test system: SF-295 CNS
SN12C renal = test system: SN12C renal
SW-620 colon = test system: SW-620 colon
TK-10 renal = test system: TK-10 renal
U251 CNS = test system: U251 CNS

CSc1nc(N)c2c(-c3ccccc3)c3c(nc2n1)CCCC3
TGI (CAKI-1 renal): > 100 µM | TGI (CCRF-CEM leukemia): > 100 µM | TGI (DU-145 prostate): > 100 µM | TGI (HCT-15 colon): > 100 µM | TGI (HL-60(TB) leukemia): > 100 µM | TGI (IGROV1 ovarian): > 100 µM | TGI (K-562 leukemia): > 100 µM | TGI (KM12 colon): > 100 µM | TGI (MCF7 breast): > 100 µM | TGI (MDA-MB-231 breast): > 100 µM | TGI (MDA-MB-435): > 100 µM | TGI (NCI-H460 lung): > 100 µM | TGI (OVCAR-5 ovarian): > 100 µM | TGI (OVCAR-8 ovarian): > 100 µM | TGI (RXF 393 renal): 94.2 µM | TGI (SF-295 CNS): > 100 µM | TGI (SN12C renal): > 100 µM | TGI (SW-620 colon): > 100 µM | TGI (TK-10 renal): > 100 µM | TGI (U251 CNS): > 100 µM
